Data as given in BindingDB's records for patent US20230348456 (Repare Therapeutics, 2023).

target: T1, Membrane-associated tyrosine- and threonine-specific cdc2-inhibitory kinase (Homo sapiens, UniProt Q99640); assay: Enzymatic Assay
T1 sequence (Q99640 whole entry): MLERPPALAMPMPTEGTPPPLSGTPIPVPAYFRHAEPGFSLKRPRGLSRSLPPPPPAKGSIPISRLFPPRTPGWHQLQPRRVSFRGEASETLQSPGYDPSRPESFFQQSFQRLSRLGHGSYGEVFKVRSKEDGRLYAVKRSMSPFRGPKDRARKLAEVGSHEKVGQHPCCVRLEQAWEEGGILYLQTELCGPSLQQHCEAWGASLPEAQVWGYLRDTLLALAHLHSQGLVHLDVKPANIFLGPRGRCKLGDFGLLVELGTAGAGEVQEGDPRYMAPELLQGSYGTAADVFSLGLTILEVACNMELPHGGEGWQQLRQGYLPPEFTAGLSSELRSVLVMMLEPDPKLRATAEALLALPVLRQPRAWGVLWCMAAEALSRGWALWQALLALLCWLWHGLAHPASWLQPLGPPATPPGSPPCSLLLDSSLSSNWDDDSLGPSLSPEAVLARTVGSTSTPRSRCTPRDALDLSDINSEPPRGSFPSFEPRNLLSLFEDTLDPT
Protocol: Detection of Myt1 kinase activity utilized a recombinant human Myt1 kinase assay measuring the hydrolysis of ATP using a commercially available ADP-Glo Assay (ADP-Glo Kinase Assay from Promega, 10 000 assays, #V9102). Briefly, 5 μL recombinant human Myt1 (full length PKMYT1 recombinant human protein expressed in insect cells from Thermo Fisher #A33387; 80% purity) was prepared in reaction buffer (70 mM HEPES, 3 mM MgCl2, 3 mM MnCl2, 50 μg/ml PEG 20000, 3 μM Na-orthovanadate, 1.2 mM DTT) and added to 384 well white polystyrene, flat bottom well, non-treated, microplate (Corning #3572). After this, 5 μL of compounds (diluted in reaction buffer to 0.5% DMSO) was added to the microplate and the plate was spun briefly and incubated at 22 C. for 15 minutes. Ultra-Pure Adenosine Triphosphate (ATP) solution (ADP-Glo kit from Promega) was diluted in reaction buffer and 5 μL was added to the microplate, spun down briefly and incubated for 60 minutes at 30 C. The final Myt1 enzyme concentration was 18 nM and the final ATP concentration was 10 μM. After the 60-minute incubation, 15 μL of ADP-Glo reagent was added and the plate was spun briefly and sealed and incubated in the dark for 40 minutes at 22 C. Following this, 30 μL of kinase detection reagent was added per well and the plate was spun briefly, sealed and incubated for 45-60 minutes at 22 C. in the dark. Luminescence was read using the Envision (250 ms integration). T

In order of rising IC50:
1. Nc1ccc(-c2nc3c(Br)cc(-c4cccc5[nH]ncc45)c(N)c3c(=O)[nH]2)cn1 [US20230348456, Compound 7]  4 nM
2. Nc1c(-c2cccc3[nH]ncc23)cc(-n2cccn2)c2nc(-c3ccncc3)[nH]c(=O)c12 [US20230348456, Compound 77]  4 nM
3. Nc1c(-c2cccc3[nH]ncc23)cc(-c2cccc(OC3CCOCC3)c2)c2nc(-c3ccncc3)[nH]c(=O)c12 [US20230348456, Compound 65]  4 nM
4. Nc1c(-c2cccc3[nH]ncc23)cc(-c2nccs2)c2nc(-c3ccc(CN4CCOCC4)cc3)[nH]c(=O)c12 [US20230348456, Compound 39]  8 nM
5. Nc1c(-c2cccc3[nH]ncc23)cc(Br)c2nc(-c3ccc(N4CCC5(CC4)COC5)nc3)[nH]c(=O)c12 [US20230348456, Compound 34]  10 nM
